# “And” between values parts separate entries of the source, which are not always exact repeats. Identical values can stand only once.
# Columns and labels:
# BxPC3-luc tumor = assay: Biodistribution in BxPC3-luc tumor-bearing mice; format: in vivo, BALB/c nu/nu mice
# Protocol: We investigated the biodistribution of the radiotracers in BxPC3-luc tumor-bearing mice by co-injecting [^77Br]2 with [^125I]4 (Table 3), and [^77Br]3 with [^125I]5 (Table 4).
# Animal experiments were conducted in strict accordance with the Guidelines for the Care and Use of Laboratory Animals of Kanazawa University. The animal experimental protocols used were approved by the Committee on Animal Experimentation of Kanazawa University (Permit Number: AP-163766). The animals were housed with free access to food and water at approximately 23 °C with a 12 h light/dark schedule. ddY mice (six-week-old, male, 27–30 g) and BALB/c nu/nu mice (four-week-old, female, 12–17 g) were purchased from Japan SLC Inc. (Hamamatsu, Japan). For preparing the tumor-bearing mice, BxPC3-luc cells (5 × 10^6 cells) were subcutaneously injected into the left shoulder of BALB/c nu/nu mice. The tumor reached palpable size after two weeks of the inoculation.
# (§1) Mice were intravenously injected via the tail with 100 µL of saline solution of [^77Br]2 and [^125I]4 or [^77Br]3 and [^125I]5 (74 kBq, respectively), containing 10% ethanol and 1% tween-80. The ddY mice were sacrificed at 10 min, 1, 4, and 24 h postinjection. Meanwhile, tumor-bearing mice were sacrificed at 1 h postinjection.
# (§2) Tissues in mice were resected and weighed. The radioactivity of the tissues was counted by a gamma counter and counts were corrected for background radiation. The data were expressed as percent injection dose per gram tissue (%ID/g).
# [1] = In vitro stability in 0.1 M PBS (pH 7.4); format: physicochemical; details: 24 h incubation at 37 °C, purity by TLC
# Protocol: The stability of [^77Br]2 and [^77Br]3 in 0.1 M phosphate-buffered saline (PBS) (pH 7.4) was high (93.6 ± 0.9% and 93.0 ± 0.6%, respectively). There was no significant decomposition after 24 h incubation at 37 °C for either radiotracer.
# The stability of radiolabeled compounds, [^77Br]2 and [^77Br]3, were analyzed as described previously. The purities radiolabeled compounds were determined by TLC using chloroform/methanol = 5/1 and 20/1 as a developing solvent for [^77Br]2 and [^77Br]3, respectively. The results were confirmed by RP-HPLC.
# [2] = n-octanol/phosphate buffer partition coefficient; format: physicochemical; details: n-octanol / 0.1 M phosphate buffer pH 7.4; read-out: n-octanol/phosphate buffer partition coefficient (log P)
# Protocol: The n-octanol/phosphate buffer partition coefficients of [^77Br]2 were 2.36 ± 0.06 which were lower than [^77Br]3 (3.02 ± 0.04). These values are lower than radioiodinated compounds, [^125I]4 and [^125I]5 at 2.71 ± 0.03 and 3.19 ± 0.17, respectively.
# Partition coefficients of [^77Br]2 and [^77Br]3 into n-octanol and 0.1 M phosphate buffer (PB) pH 7.4 were determined using the method described previously. The measurement was performed in quadruplicate. The partition coefficient was determined by calculating the ratio of cpm/mL of n-octanol to that of buffer and expressed as log P. Radioactivity of each layer were counted by a gamma counter.
# [3] = Biodistribution in ddY mice; format: in vivo; details: i.v. co-injection
# Protocol: In this study, to minimize both the number of mice consumed in the experiment and the potential for experimental errors, we co-injected radiobrominated and radioiodinated compounds into mice[30],[31]. High radioactivity in the liver, small intestine, and large intestine was observed.
# as §1, §2
# BxPC3-luc cells = assay: In vitro blocking study; format: cell-based; details: inhibitor 1, 2 or 3 at 10 µM, 10 min pretreatment
# Protocol: Blocking studies using 1, 2, and 3 were performed (Fig. 6). Pretreatment of an excess amount of 1 or 2 decreased uptakes of [^77Br]2 in BxPC3-luc cells. The uptake of [^77Br]3 was inhibited by a pretreatment using 1 or 3 in the same way.
# Figure 6 In vitro blocking studies of (a) [^77Br]2 and (b) [^77Br]3 in BxPC3-luc and MCF7 cells. Data were presented as mean ± SD for three samples. Significance was determined using a one-way ANOVA followed by Dunnett’s post hoc test (^*p < 0.001, vs control [^77Br]2 or [^77Br]3).
# For in vitro blocking experiment, inhibitor (1, 2, or 3 with final concentration 10 µM) in 1 mL of medium without FBS was added to wells containing 2 × 10^5 cells/well. After 10 min incubation, [^77Br]2 or [^77Br]3 (3.7 kBq/well) in 1 mL of medium without FBS was added to each well. Radioactivity and protein concentration in the cells were determined by the same method above-mentioned.
smiles,measurement,setting,value
"COCCOc1ccc2c(c1)ncn2-c1ccc2c([77Br])ccc(N3CCC(N)CC3)c2n1 [[^77Br]2, [^77Br]1-{5-Bromo-2-[5-(2-methoxyethoxy)-1H-benzo[d]imidazol-1-yl]quinoline-8-yl}piperidin-4-amine]",Tumor-to-blood ratio of radioactivity,BxPC3-luc tumor; 1 h postinjection,2.8
same,Radioactivity in Blood,"BxPC3-luc tumor; i.v. co-injection, 1 h",0.58 (0.10) %injected dose/gram of tissue
same,Radioactivity in Bone,"BxPC3-luc tumor; i.v. co-injection, 1 h",1.15 (0.09) %injected dose/gram of tissue
same,Radioactivity in Brain,"BxPC3-luc tumor; i.v. co-injection, 1 h",0.14 (0.03) %injected dose/gram of tissue
same,Radioactivity in BxPC3-luc tumor,"BxPC3-luc tumor; i.v. co-injection, 1 h",1.61 %injected dose/gram of tissue and 1.61 ± 0.24 %injected dose/gram of tissue and 1.61 (0.24) %injected dose/gram of tissue
same,Radioactivity in Heart,"BxPC3-luc tumor; i.v. co-injection, 1 h",1.88 (0.33) %injected dose/gram of tissue
same,Radioactivity in Kidney,"BxPC3-luc tumor; i.v. co-injection, 1 h",17.39 (4.03) %injected dose/gram of tissue
same,Radioactivity in Large intestine,"BxPC3-luc tumor; i.v. co-injection, 1 h",3.22 (0.40) %injected dose/gram of tissue
same,Radioactivity in Liver,"BxPC3-luc tumor; i.v. co-injection, 1 h",11.07 (1.04) %injected dose/gram of tissue
same,Radioactivity in Lung,"BxPC3-luc tumor; i.v. co-injection, 1 h",10.31 (1.91) %injected dose/gram of tissue
same,Radioactivity in Muscle,"BxPC3-luc tumor; i.v. co-injection, 1 h",0.94 (0.08) %injected dose/gram of tissue
same,Radioactivity in Pancreas,"BxPC3-luc tumor; i.v. co-injection, 1 h",6.61 (1.00) %injected dose/gram of tissue
same,Radioactivity in Small intestine,"BxPC3-luc tumor; i.v. co-injection, 1 h",51.52 (9.93) %injected dose/gram of tissue
same,Radioactivity in Spleen,"BxPC3-luc tumor; i.v. co-injection, 1 h",2.94 (0.54) %injected dose/gram of tissue
same,Radioactivity in Stomach,"BxPC3-luc tumor; i.v. co-injection, 1 h",0.96 (0.20) %injected dose /organ
same,Stability in 0.1 M PBS (pH 7.4),[1],93.6 ± 0.9%
same,logP,[2],2.36 ± 0.06
same,Radioactivity in Blood,[3]; 10 min,0.99 (0.03) %injected dose/gram tissue
same,Radioactivity in Bone,[3]; 10 min,2.81 (1.06) %injected dose/gram tissue
same,Radioactivity in Brain,[3]; 10 min,0.12 (0.01) %injected dose/gram tissue
same,Radioactivity in Heart,[3]; 10 min,4.41 (0.27) %injected dose/gram tissue
same,Radioactivity in Kidney,[3]; 10 min,15.61 (1.32) %injected dose/gram tissue
same,Radioactivity in Large intestine,[3]; 10 min,0.99 (0.10) %injected dose/gram tissue
same,Radioactivity in Liver,[3]; 10 min,12.49 (0.64) %injected dose/gram tissue
same,Radioactivity in Lung,[3]; 10 min,10.92 (0.55) %injected dose/gram tissue
same,Radioactivity in Muscle,[3]; 10 min,2.24 (0.18) %injected dose/gram tissue
same,Radioactivity in Pancreas,[3]; 10 min,4.18 (0.38) %injected dose/gram tissue
same,Radioactivity in Small intestine,[3]; 10 min,8.58 (2.18) %injected dose/gram tissue
same,Radioactivity in Spleen,[3]; 10 min,5.39 (0.40) %injected dose/gram tissue
same,Radioactivity in Stomach,[3]; 10 min,1.74 (0.15) %injected dose /organ
same,Radioactivity in Blood,[3]; 1 h,0.28 (0.06) %injected dose/gram tissue
same,Radioactivity in Bone,[3]; 1 h,1.15 (0.15) %injected dose/gram tissue
same,Radioactivity in Brain,[3]; 1 h,0.10 (0.01) %injected dose/gram tissue
same,Radioactivity in Heart,[3]; 1 h,1.15 (0.17) %injected dose/gram tissue
same,Radioactivity in Kidney,[3]; 1 h,10.12 (3.49) %injected dose/gram tissue
same,Radioactivity in Large intestine,[3]; 1 h,2.69 (0.65) %injected dose/gram tissue
same,Radioactivity in Liver,[3]; 1 h,4.26 (1.37) %injected dose/gram tissue
same,Radioactivity in Lung,[3]; 1 h,4.32 (0.84) %injected dose/gram tissue
same,Radioactivity in Muscle,[3]; 1 h,0.92 (0.04) %injected dose/gram tissue
same,Radioactivity in Pancreas,[3]; 1 h,2.98 (0.75) %injected dose/gram tissue
same,Radioactivity in Small intestine,[3]; 1 h,29.51 (7.92) %injected dose/gram tissue
same,Radioactivity in Spleen,[3]; 1 h,1.59 (0.28) %injected dose/gram tissue
same,Radioactivity in Stomach,[3]; 1 h,1.62 (0.55) %injected dose /organ
same,Radioactivity in Blood,[3]; 4 h,0.20 (0.03) %injected dose/gram tissue
same,Radioactivity in Bone,[3]; 4 h,1.50 (1.27) %injected dose/gram tissue
same,Radioactivity in Brain,[3]; 4 h,0.09 (0.00) %injected dose/gram tissue
same,Radioactivity in Heart,[3]; 4 h,0.58 (0.13) %injected dose/gram tissue
same,Radioactivity in Kidney,[3]; 4 h,4.33 (0.75) %injected dose/gram tissue
same,Radioactivity in Large intestine,[3]; 4 h,53.70 (8.89) %injected dose/gram tissue
same,Radioactivity in Liver,[3]; 4 h,3.44 (0.98) %injected dose/gram tissue
same,Radioactivity in Lung,[3]; 4 h,2.71 (1.06) %injected dose/gram tissue
same,Radioactivity in Muscle,[3]; 4 h,0.44 (0.07) %injected dose/gram tissue
same,Radioactivity in Pancreas,[3]; 4 h,1.63 (0.19) %injected dose/gram tissue
same,Radioactivity in Small intestine,[3]; 4 h,4.76 (0.89) %injected dose/gram tissue
same,Radioactivity in Spleen,[3]; 4 h,0.69 (0.24) %injected dose/gram tissue
same,Radioactivity in Stomach,[3]; 4 h,0.81 (0.21) %injected dose /organ
same,Radioactivity in Blood,[3]; 24 h,0.12 (0.02) %injected dose/gram tissue
same,Radioactivity in Bone,[3]; 24 h,0.55 (0.10) %injected dose/gram tissue
same,Radioactivity in Brain,[3]; 24 h,0.07 (0.00) %injected dose/gram tissue
same,Radioactivity in Heart,[3]; 24 h,0.29 (0.03) %injected dose/gram tissue
same,Radioactivity in Kidney,[3]; 24 h,0.21 (0.05) %injected dose/gram tissue
same,Radioactivity in Large intestine,[3]; 24 h,0.18 (0.03) %injected dose/gram tissue
same,Radioactivity in Liver,[3]; 24 h,0.29 (0.08) %injected dose/gram tissue
same,Radioactivity in Lung,[3]; 24 h,0.29 (0.05) %injected dose/gram tissue
same,Radioactivity in Muscle,[3]; 24 h,0.22 (0.02) %injected dose/gram tissue
same,Radioactivity in Pancreas,[3]; 24 h,0.41 (0.34) %injected dose/gram tissue
same,Radioactivity in Small intestine,[3]; 24 h,0.07 (0.01) %injected dose/gram tissue
same,Radioactivity in Spleen,[3]; 24 h,0.66 (0.77) %injected dose/gram tissue
same,Radioactivity in Stomach,[3]; 24 h,0.11 (0.01) %injected dose /organ
same,Uptake in BxPC3-luc cells after pretreatment with excess inhibitor,BxPC3-luc cells,decreased
